Test results taken from ChEMBL document CHEMBL4251634, “Synthesis and antimicrobial activity of pyrimidinyl 1,3,4-oxadiazoles, 1,3,4-thiadiazoles and 1,2,4-triazoles” (2018).

What was measured:
Type in all cases: functional
Aspergillus niger [1] = assay: Antifungal activity against Aspergillus niger assessed as diameter of inhibition zone at 12.5 ug/well after 48 hrs by agar well diffusion method; settings: read-out: DIZ
Bacillus subtilis [2] = assay: Antibacterial activity against Bacillus subtilis assessed as diameter of inhibition zone at 25 ug/well after 24 hrs by agar well diffusion method; settings: read-out: DIZ
Bacillus subtilis [3] = assay: Antibacterial activity against Bacillus subtilis assessed as diameter of inhibition zone at 50 ug/well after 24 hrs by agar well diffusion method; settings: read-out: DIZ
Pseudomonas aeruginosa [4] = assay: Antibacterial activity against Pseudomonas aeruginosa assessed as diameter of inhibition zone at 50 ug/well after 24 hrs by agar well diffusion method; settings: read-out: DIZ
Aspergillus niger [5] = assay: Ratio of MFC to MIC for Aspergillus niger
Klebsiella pneumoniae [6] = assay: Antibacterial activity against Klebsiella pneumoniae assessed as diameter of inhibition zone at 100 ug/well after 24 hrs by agar well diffusion method; settings: read-out: DIZ
Penicillium chrysogenum [7] = assay: Antifungal activity against Penicillium chrysogenum after 48 hrs by turbidity-based broth dilution assay
Aspergillus niger [8] = assay: Antifungal activity against Aspergillus niger assessed as diameter of inhibition zone at 25 ug/well after 48 hrs by agar well diffusion method; settings: read-out: DIZ
Pseudomonas aeruginosa [9] = assay: Antibacterial activity against Pseudomonas aeruginosa assessed as diameter of inhibition zone at 25 ug/well after 24 hrs by agar well diffusion method; settings: read-out: DIZ
Staphylococcus aureus [10] = assay: Antibacterial activity against Staphylococcus aureus assessed as diameter of inhibition zone at 12.5 ug/well after 24 hrs by agar well diffusion method; settings: read-out: DIZ
Staphylococcus aureus [11] = assay: Antibacterial activity against Staphylococcus aureus assessed as diameter of inhibition zone at 25 ug/well after 24 hrs by agar well diffusion method; settings: read-out: DIZ
Klebsiella pneumoniae [12] = assay: Bactericidal activity against Klebsiella pneumoniae incubated for 24 hrs followed by regrowth on sterile nutrient broth for 24 hrs
Aspergillus niger [13] = assay: Antifungal activity against Aspergillus niger assessed as diameter of inhibition zone at 50 ug/well after 48 hrs by agar well diffusion method; settings: read-out: DIZ
Staphylococcus aureus [14] = assay: Bactericidal activity against Staphylococcus aureus incubated for 24 hrs followed by regrowth on sterile nutrient broth for 24 hrs
Staphylococcus aureus [15] = assay: Antibacterial activity against Staphylococcus aureus after 24 hrs by turbidity-based broth dilution assay
Staphylococcus aureus [16] = assay: Antibacterial activity against Staphylococcus aureus assessed as diameter of inhibition zone at 100 ug/well after 24 hrs by agar well diffusion method; settings: read-out: DIZ
Aspergillus niger [17] = assay: Fungicidal activity against Aspergillus niger incubated for 48 hrs followed by regrowth on PDA plates for 48 hrs
Bacillus subtilis [18] = assay: Bactericidal activity against Bacillus subtilis incubated for 24 hrs followed by regrowth on sterile nutrient broth for 24 hrs; set-up: unit not given here
Klebsiella pneumoniae [19] = assay: Antibacterial activity against Klebsiella pneumoniae assessed as diameter of inhibition zone at 50 ug/well after 24 hrs by agar well diffusion method; settings: read-out: DIZ
Penicillium chrysogenum [20] = assay: Antifungal activity against Penicillium chrysogenum assessed as diameter of inhibition zone at 50 ug/well after 48 hrs by agar well diffusion method; settings: read-out: DIZ
Bacillus subtilis [21] = assay: Antibacterial activity against Bacillus subtilis assessed as diameter of inhibition zone at 12.5 ug/well after 24 hrs by agar well diffusion method; settings: read-out: DIZ
Pseudomonas aeruginosa [22] = assay: Antibacterial activity against Pseudomonas aeruginosa assessed as diameter of inhibition zone at 12.5 ug/well after 24 hrs by agar well diffusion method; settings: read-out: DIZ
Penicillium chrysogenum [23] = assay: Antifungal activity against Penicillium chrysogenum assessed as diameter of inhibition zone at 100 ug/well after 48 hrs by agar well diffusion method; settings: read-out: DIZ
Klebsiella pneumoniae [24] = assay: Antibacterial activity against Klebsiella pneumoniae assessed as diameter of inhibition zone at 12.5 ug/well after 24 hrs by agar well diffusion method; settings: read-out: DIZ
Aspergillus niger [25] = assay: Antifungal activity against Aspergillus niger after 48 hrs by turbidity-based broth dilution assay
Pseudomonas aeruginosa [26] = assay: Antibacterial activity against Pseudomonas aeruginosa after 24 hrs by turbidity-based broth dilution assay
Aspergillus niger [27] = assay: Antifungal activity against Aspergillus niger assessed as diameter of inhibition zone at 100 ug/well after 48 hrs by agar well diffusion method; settings: read-out: DIZ
Penicillium chrysogenum [28] = assay: Antifungal activity against Penicillium chrysogenum assessed as diameter of inhibition zone at 12.5 ug/well after 48 hrs by agar well diffusion method; settings: read-out: DIZ
Staphylococcus aureus [29] = assay: Antibacterial activity against Staphylococcus aureus assessed as diameter of inhibition zone at 50 ug/well after 24 hrs by agar well diffusion method; settings: read-out: DIZ
Penicillium chrysogenum [30] = assay: Antifungal activity against Penicillium chrysogenum assessed as diameter of inhibition zone at 25 ug/well after 48 hrs by agar well diffusion method; settings: read-out: DIZ
Pseudomonas aeruginosa [31] = assay: Bactericidal activity against Pseudomonas aeruginosa incubated for 24 hrs followed by regrowth on sterile nutrient broth for 24 hrs
Bacillus subtilis [32] = assay: Antibacterial activity against Bacillus subtilis assessed as diameter of inhibition zone at 100 ug/well after 24 hrs by agar well diffusion method; settings: read-out: DIZ
Penicillium chrysogenum [33] = assay: Fungicidal activity against Penicillium chrysogenum incubated for 48 hrs followed by regrowth on PDA plates for 48 hrs
Klebsiella pneumoniae [34] = assay: Antibacterial activity against Klebsiella pneumoniae assessed as diameter of inhibition zone at 25 ug/well after 24 hrs by agar well diffusion method; settings: read-out: DIZ
Pseudomonas aeruginosa [35] = assay: Antibacterial activity against Pseudomonas aeruginosa assessed as diameter of inhibition zone at 100 ug/well after 24 hrs by agar well diffusion method; settings: read-out: DIZ
Klebsiella pneumoniae [36] = assay: Antibacterial activity against Klebsiella pneumoniae after 24 hrs by turbidity-based broth dilution assay
Pseudomonas aeruginosa [37] = assay: Ratio of MBC to MIC for Pseudomonas aeruginosa

Row | Compound | zone of inhibition at 12.5 µg/disc (Aspergillus niger [1]) | zone of inhibition at 25 µg/disc (Bacillus subtilis [2]) | zone of inhibition at 50 µg/disc (Bacillus subtilis [3]) | zone of inhibition at 50 µg/disc (Pseudomonas aeruginosa [4]) | zone of inhibition at 100 µg/disc (Klebsiella pneumoniae [6]) | MIC (Penicillium chrysogenum [7]) | zone of inhibition at 25 µg/disc (Aspergillus niger [8]) | zone of inhibition at 25 µg/disc (Pseudomonas aeruginosa [9]) | zone of inhibition at 12.5 µg/disc (Staphylococcus aureus [10]) | zone of inhibition at 25 µg/disc (Staphylococcus aureus [11]) | MBC (Klebsiella pneumoniae [12]) | zone of inhibition at 50 µg/disc (Aspergillus niger [13]) | MBC (Staphylococcus aureus [14]) | MIC (Staphylococcus aureus [15]) | zone of inhibition at 100 µg/disc (Staphylococcus aureus [16]) | MFC (Aspergillus niger [17]) | MBC (Bacillus subtilis [18]) | zone of inhibition at 50 µg/disc (Klebsiella pneumoniae [19]) | zone of inhibition at 50 µg/disc (Penicillium chrysogenum [20]) | zone of inhibition at 12.5 µg/disc (Bacillus subtilis [21]) | also measured
1 | Cc1cc(SCc2nnc(-c3ccc(Cl)cc3)n2N)nc(SCc2nnc(-c3ccc(Cl)cc3)n2N)n1 | 32 mm | 18 mm | 20 mm | 24 mm | 29 mm | 25 µg | 33 mm | 21 mm | 10 mm | 11 mm | 100 µg | 35 mm | >200 µg | 100 µg | 15 mm | 12.5 µg | 200 | 26 mm | 25 mm | 16 mm | Ratio (Aspergillus niger [5]): 2; zone of inhibition at 12.5 µg/disc (Pseudomonas aeruginosa [22]): 18 mm; zone of inhibition at 100 µg/disc (Penicillium chrysogenum [23]): 29 mm; zone of inhibition at 12.5 µg/disc (Klebsiella pneumoniae [24]): 22 mm; MIC (Aspergillus niger [25]): 6.25 µg; MIC (Pseudomonas aeruginosa [26]): 25 µg; zone of inhibition at 100 µg/disc (Aspergillus niger [27]): 38 mm; zone of inhibition at 12.5 µg/disc (Penicillium chrysogenum [28]): 21 mm; zone of inhibition at 50 µg/disc (Staphylococcus aureus [29]): 13 mm; zone of inhibition at 25 µg/disc (Penicillium chrysogenum [30]): 23 mm; MBC (Pseudomonas aeruginosa [31]): 100 µg; zone of inhibition at 100 µg/disc (Bacillus subtilis [32]): 24 mm; MFC (Penicillium chrysogenum [33]): 100 µg; zone of inhibition at 25 µg/disc (Klebsiella pneumoniae [34]): 24 mm; zone of inhibition at 100 µg/disc (Pseudomonas aeruginosa [35]): 27 mm; MIC (Klebsiella pneumoniae [36]): 25 µg
2 | Cc1cc(SCc2nnc(-c3ccc([N+](=O)[O-])cc3)s2)nc(SCc2nnc(-c3ccc([N+](=O)[O-])cc3)s2)n1 | 27 mm | 24 mm | 27 mm | 33 mm | 38 mm | 50 µg | 29 mm | 31 mm | 16 mm | 18 mm | 50 µg | 32 mm | 200 µg | 50 µg | 23 mm | 50 µg | 100 | 35 mm | 24 mm | 22 mm | Ratio (Pseudomonas aeruginosa [37]): 2; zone of inhibition at 12.5 µg/disc (Pseudomonas aeruginosa [22]): 28 mm; zone of inhibition at 100 µg/disc (Penicillium chrysogenum [23]): 26 mm; zone of inhibition at 12.5 µg/disc (Klebsiella pneumoniae [24]): 31 mm; MIC (Aspergillus niger [25]): 12.5 µg; MIC (Pseudomonas aeruginosa [26]): 6.25 µg; zone of inhibition at 100 µg/disc (Aspergillus niger [27]): 35 mm; zone of inhibition at 12.5 µg/disc (Penicillium chrysogenum [28]): 20 mm; zone of inhibition at 50 µg/disc (Staphylococcus aureus [29]): 20 mm; zone of inhibition at 25 µg/disc (Penicillium chrysogenum [30]): 22 mm; MBC (Pseudomonas aeruginosa [31]): 12.5 µg; zone of inhibition at 100 µg/disc (Bacillus subtilis [32]): 31 mm; MFC (Penicillium chrysogenum [33]): 200 µg; zone of inhibition at 25 µg/disc (Klebsiella pneumoniae [34]): 33 mm; zone of inhibition at 100 µg/disc (Pseudomonas aeruginosa [35]): 35 mm; MIC (Klebsiella pneumoniae [36]): 12.5 µg
3 | Cc1cc(SCc2nnc(-c3ccc(Cl)cc3)s2)nc(SCc2nnc(-c3ccc(Cl)cc3)s2)n1 | 24 mm | 23 mm | 26 mm | 32 mm | 35 mm | 50 µg | 26 mm | 29 mm | 15 mm | 17 mm | 50 µg | 28 mm | 200 µg | 50 µg | 21 mm | 50 µg | 100 | 32 mm | 19 mm | 21 mm | Ratio (Pseudomonas aeruginosa [37]): 2; zone of inhibition at 12.5 µg/disc (Pseudomonas aeruginosa [22]): 26 mm; zone of inhibition at 100 µg/disc (Penicillium chrysogenum [23]): 22 mm; zone of inhibition at 12.5 µg/disc (Klebsiella pneumoniae [24]): 28 mm; MIC (Aspergillus niger [25]): 12.5 µg; MIC (Pseudomonas aeruginosa [26]): 6.25 µg; zone of inhibition at 100 µg/disc (Aspergillus niger [27]): 31 mm; zone of inhibition at 12.5 µg/disc (Penicillium chrysogenum [28]): 15 mm; zone of inhibition at 50 µg/disc (Staphylococcus aureus [29]): 19 mm; zone of inhibition at 25 µg/disc (Penicillium chrysogenum [30]): 17 mm; MBC (Pseudomonas aeruginosa [31]): 12.5 µg; zone of inhibition at 100 µg/disc (Bacillus subtilis [32]): 29 mm; MFC (Penicillium chrysogenum [33]): 200 µg; zone of inhibition at 25 µg/disc (Klebsiella pneumoniae [34]): 30 mm; zone of inhibition at 100 µg/disc (Pseudomonas aeruginosa [35]): 34 mm; MIC (Klebsiella pneumoniae [36]): 12.5 µg
4 | Cc1cc(SCc2nnc(-c3ccc([N+](=O)[O-])cc3)n2N)nc(SCc2nnc(-c3ccc([N+](=O)[O-])cc3)n2N)n1 | 33 mm | 20 mm | 22 mm | 28 mm | 32 mm | 25 µg | 35 mm | 26 mm | 13 mm | 15 mm | 100 µg | 37 mm | >200 µg | 100 µg | 19 mm | 12.5 µg | 200 | 29 mm | 27 mm | 18 mm | Ratio (Aspergillus niger [5]): 2; zone of inhibition at 12.5 µg/disc (Pseudomonas aeruginosa [22]): 23 mm; zone of inhibition at 100 µg/disc (Penicillium chrysogenum [23]): 31 mm; zone of inhibition at 12.5 µg/disc (Klebsiella pneumoniae [24]): 25 mm; MIC (Aspergillus niger [25]): 6.25 µg; MIC (Pseudomonas aeruginosa [26]): 12.5 µg; zone of inhibition at 100 µg/disc (Aspergillus niger [27]): 40 mm; zone of inhibition at 12.5 µg/disc (Penicillium chrysogenum [28]): 23 mm; zone of inhibition at 50 µg/disc (Staphylococcus aureus [29]): 17 mm; zone of inhibition at 25 µg/disc (Penicillium chrysogenum [30]): 25 mm; MBC (Pseudomonas aeruginosa [31]): 50 µg; zone of inhibition at 100 µg/disc (Bacillus subtilis [32]): 26 mm; MFC (Penicillium chrysogenum [33]): 100 µg; zone of inhibition at 25 µg/disc (Klebsiella pneumoniae [34]): 27 mm; zone of inhibition at 100 µg/disc (Pseudomonas aeruginosa [35]): 31 mm; MIC (Klebsiella pneumoniae [36]): 25 µg
